Like-named read-outs stand apart in the source and are kept apart here.
Key:
Type in all cases: biochemical, male Wistar rats
[1] = molecular target: T1, serotonine transporter/uptake site (3H-5-HT uptake, cortical synaptosomes) (Rattus norvegicus, UniProt P31652); test: In vitro inhibition of 3H-5-hydroxytryptamine (3H-5-HT, serotonine) uptake in cortical synaptosomes; conditions: for IC50: cortical synaptosomes; for greater potency as inhibitors of serotonine uptake than of either noradrenaline or dopamine uptake: selectivity, 5-HT uptake vs NA or DA uptake, in vitro
T1 construct: Cerebral cortices from male Wistar rats (150-200 g) are homogenised; from tissue; host or cells: rat cerebral cortex, P2 synaptosomal pellet
Source text: (§1) The compounds of the invention have been tested for their ability to inhibit reuptake of dopamine(DA) noradrenaline(NA) and serotonine(5-HT) in synaptosomes.
(§2) Specific neurotransmitter transporters/uptake sites on nerve terminals presumably function to terminate neuronal signalling by removing the neurotransmitters dopamine, noradrenaline and serotonine, respectively, from the synaptic cleft. The activity of the transporter integral proteins can be measured in vitro by synaptosomal uptake of ^3H-dopamine, ^3H-noradrenaline and ^3H-serotonine, respectively.
In vitro Inhibition of ^3H-5-hydroxytryptamine (^3H-5-HT, Serotonine) Uptake in Cortical Synaptosomes
(§3) Tissue Preparation: Preparations are performed at 0-4° C. unless otherwise indicated. Cerebral cortices from male Wistar rats (150-200 g) are homogenised for 5-10 sec in 100 volumes of ice-cold 0.32M sucrose containing 1 mM pargyline using an Ultra-Turrax homogenizer. Monoamine oxidase activity will be inhibited in the presence of pargyline. The homogenate is centrifuged at 1000×g for 10 min. The resulting supernatant is then centrifuged at 27,000×g for 50 min and the supernatant is discarded. The pellet (P2) is resuspended in oxygenated (equilibrated with an atmosphere of 96% O2: 4% CO2 for at least 30 min) Krebs-Ringer incubation buffer (1000 ml per g of original tissue) at pH 7.2 containing 122 mM NaCl, 0.16 mM EDTA, 4.8 mM KCl, 12.7 mM Na2HPO4, 3.0 mM NaH2PO4, 1.2 mM MgSO4, 1 mM CaCl2, 10 mM glucose and 1 mM ascorbic acid.
(§4) Assay: Aliquots of 4.0 ml tissue suspension are added to 100 μl of test solution and 100 μl of ^3H-5-HT (1 nM, final concentration), mixed and incubated for 30 min at 37° C. Non-specific uptake is determined using citalopram (1 μM, final concentration). After incubation the samples are poured directly onto Whatman GF/C glass fibre filters under suction. The filters are then washed three times with 5 ml of ice-cold 0.9% (w/v) NaCl solution. The amount of radioactivity on the filters is determined by conventional liquid scintillation counting. Specific uptake is calculated as the difference between total uptake and non-specific uptake.
(§5) 25-75% inhibition of specific binding must be obtained, before calculation of an IC50.
The test value is given as IC50 (the concentration (μM) of the test substance which inhibits the specific binding of ^3H-5-HT by 50%).

[2] = molecular target: noradrenaline transporter/uptake site (3H-NA uptake, hippocampal synaptosomes) (Rattus norvegicus, UniProt Q9WTR4); test: In vitro inhibition of 3H-noradrenaline (3H-NA) uptake in hippocampal synaptosomes
Source text: as §1, §2
In vitro Inhibition of ^3H-noradrenaline (^3H-NA) Uptake in Hippocampal Synaptosomes
as §3, with “Tissue preparation:” for “Tissue Preparation:”, “indicated. Hippocampi” for “indicated. Cerebral cortices”, “buffer (2000” for “buffer (1000”, “per […]” for “per g”, “MgSO4, 0.97” for “MgSO4, 1”
as §4, with “^3H-NA” for “^3H-5-HT”, “90” for “30”, “desipramine” for “citalopram”
as §5
The test value is given as IC50 (the concentration (μM) of the test substance which inhibits the specific binding of ^3H-NA by 50%).

[3] = molecular target: T2, dopamine transporter/uptake site (3H-DA uptake, striatal synaptosomes) (Rattus norvegicus, UniProt P23977); test: In vitro inhibition of 3H-dopamine (3H-DA) uptake in striatal synaptosomes
T2 construct: Corpi striati from male Wistar rats (150-200 g) are homogenised; from tissue; host or cells: rat corpus striatum, P2 synaptosomal pellet
Source text: as §1, §2
In vitro Inhibition of ^3H-dopamine (^3H-DA) Uptake in Striatal Synaptosomes
as §3, with “preparations:” for “Preparation:”, “Corpi striati” for “Cerebral cortices”, “(8000” for “(1000”
as §4, with “^3H-DA” for “^3H-5-HT”, “25” for “30”, “benztropine (10” for “citalopram (1”
as §5
The test value is given as IC50 (the concentration (μM) of the test substance which inhibits the specific binding of ^3H-DA by 50%).

[4] = 5-HT-uptake IC50, Table 1, 3H-5-HT 1 nM, 30 min at 37° C.
[5] = read-out: NA-uptake IC50, Table 1, 3H-NA 1 nM, 90 min at 37° C.
[6] = DA-uptake IC50, Table 1, 3H-DA 1 nM, 25 min at 37° C.
[7] = 5-HT-uptake IC50, Table 2, value ± spread
[8] = read-out: NA-uptake IC50, Table 2, value ± spread
[9] = DA-uptake IC50, Table 2, value ± spread

T2 sequence (P23977 whole entry): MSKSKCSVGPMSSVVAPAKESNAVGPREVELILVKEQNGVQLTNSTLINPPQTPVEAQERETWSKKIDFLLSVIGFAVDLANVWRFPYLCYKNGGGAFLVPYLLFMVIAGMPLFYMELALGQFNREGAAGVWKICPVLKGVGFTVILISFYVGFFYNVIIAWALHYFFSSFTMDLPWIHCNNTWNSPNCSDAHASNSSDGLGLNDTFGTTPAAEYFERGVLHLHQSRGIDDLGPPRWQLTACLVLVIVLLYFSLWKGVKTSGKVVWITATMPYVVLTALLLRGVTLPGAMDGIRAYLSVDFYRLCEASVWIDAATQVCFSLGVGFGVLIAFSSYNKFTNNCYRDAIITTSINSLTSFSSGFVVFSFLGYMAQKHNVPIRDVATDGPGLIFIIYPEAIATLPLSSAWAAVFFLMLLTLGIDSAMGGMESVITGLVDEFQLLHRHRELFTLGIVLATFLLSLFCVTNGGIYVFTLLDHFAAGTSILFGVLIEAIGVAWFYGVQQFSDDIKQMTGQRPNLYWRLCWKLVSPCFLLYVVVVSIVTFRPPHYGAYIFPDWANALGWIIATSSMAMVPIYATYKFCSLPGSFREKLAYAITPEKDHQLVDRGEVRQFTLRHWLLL
T1 sequence (P31652 whole entry): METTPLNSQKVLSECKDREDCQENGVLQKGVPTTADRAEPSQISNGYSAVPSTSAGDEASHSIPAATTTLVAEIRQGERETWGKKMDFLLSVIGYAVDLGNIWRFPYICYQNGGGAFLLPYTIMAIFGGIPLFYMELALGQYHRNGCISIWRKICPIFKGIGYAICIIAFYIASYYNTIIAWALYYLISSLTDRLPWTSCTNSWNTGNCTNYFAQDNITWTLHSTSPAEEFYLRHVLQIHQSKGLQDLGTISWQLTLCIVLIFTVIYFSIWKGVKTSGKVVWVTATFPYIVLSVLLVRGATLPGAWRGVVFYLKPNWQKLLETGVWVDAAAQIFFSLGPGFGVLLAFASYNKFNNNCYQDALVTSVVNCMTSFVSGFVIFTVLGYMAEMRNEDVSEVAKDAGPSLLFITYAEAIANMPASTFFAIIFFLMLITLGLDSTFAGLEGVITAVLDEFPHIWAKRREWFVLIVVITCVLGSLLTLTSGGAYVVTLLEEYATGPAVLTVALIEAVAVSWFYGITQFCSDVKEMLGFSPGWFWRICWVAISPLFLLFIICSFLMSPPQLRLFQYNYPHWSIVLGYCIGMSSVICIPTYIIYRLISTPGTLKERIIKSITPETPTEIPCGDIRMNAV

CN1C2C=C(c3ccc(C#N)cc3)CC1CC2 (racemic) [(±)-3-(4-cyanophenyl)-8-methyl-8-azabicyclo(3.2.1]oct-2-ene]
IC50 [1, 4]: 0.047 µM
IC50 [2, 5]: 4.9 µM
IC50 [3, 6]: 18 µM

CN1C2C=C(c3ccc([N+](=O)[O-])cc3)CC1CC2 (racemic) [(±)-3-(4-nitrophenyl)-8-methyl-8-azabicyclo[3.2.1]oct-2-ene]
IC50 [1, 4]: 0.016 µM
IC50 [2, 5]: 0.5 µM
IC50 [3, 6]: 1.5 µM

FC(F)(F)Oc1ccc(C2=CC3CCC(C2)N3)cc1 (racemic) [(±)-3-(4-trifluoromethoxyphenyl)-8-azabicyclo[3.2.1]oct-2-ene (racemate), (±)-3-(4-trifluoromethoxyphenyl)-8-azabicyclo[3.2.1]oct-2-ene]
IC50 [1, 7]: 0.0048 ± 0.0006 µM
greater potency as inhibitors of serotonine uptake than of either noradrenaline or dopamine uptake [1]: 3000 fold
IC50 [2, 8]: 15.6 ± 3.5 µM
IC50 [3, 9]: 18.7 ± 3.5 µM

CN1C2C=C(c3ccc(OC(F)(F)F)cc3)CC1CC2 (racemic) [(±)-3-(4-trifluoromethoxyphenyl)-8-methyl-8-azabicyclo[3.2.1]oct-2-ene]
IC50 [1, 4]: 0.0036 µM
IC50 [1, 7]: 0.0035 ± 0.0003 µM
greater potency as inhibitors of serotonine uptake than of either noradrenaline or dopamine uptake [1]: 3000 fold
IC50 [2, 5]: 8 µM
IC50 [2, 8]: 12 ± 2.3 µM
IC50 [3, 6]: 22 µM
IC50 [3, 9]: 21.3 ± 1.2 µM

FC(F)(F)Oc1ccc(C2=CC3CCC(C2)N3)cc1 (single isomer, unassigned) [3-(4-trifluoromethoxyphenyl)-8-azabicyclo[3.2.1]oct-2-ene (enantiomer A*), 3-(4-trifluoromethoxyphenyl)-8-azabicyclo[3.2.1]oct-2-ene]
IC50 [1, 7]: 0.022 ± 0.012 µM

FC(F)(F)Oc1ccc(C2=CC3CCC(C2)N3)cc1 (single isomer, unassigned) [3-(4-trifluoromethoxyphenyl)-8-azabicyclo[3.2.1]oct-2-ene (enantiomer B*), 3-(4-trifluoromethoxyphenyl)-8-azabicyclo[3.2.1]oct-2-ene]
IC50 [1, 7]: 0.012 ± 0.006 µM
